These are literature values, as cited in patent US20160361293A1, “NANOSTRUCTURED COMPOSITION COMPRISING INDOMETHACINE, ITS PHARMACEUTICALLY ACCEPTABLE SALTS AND CO-CRYSTALS AND PROCESS FOR THE PREPARATION THEREOF” (DARHOLDING KFT., priority 2014, published 2016).

Assay in data set [1]: not given
This is another data set of the same source.

For data set [2] the following is noted: in vivo.

Converted amounts (≈) assume the structure as drawn.

Take `COc1ccc2c(c1)c(CC(=O)O)c(C)n2C(=O)c1ccc(Cl)cc1` [Indomethacin, 1-(4-chlorobenzoyl)-5-methoxy-2-methyl-1H-indole-3-acetic acid]: the solubility in alcohol result (alcohol, in words) is “sparingly soluble”. Also, under “water”, the water solubility was 0.05 mg/mL (≈ 140 µM). Moreover, the solubility in water entry (water, in words) is recorded as “practically insoluble”. In addition, the “stability in neutral or slightly acidic media” value in data set [1] (neutral or slightly acidic media) is “stable”. The “stability in strong alkali” value in data set [1] (strong alkali) is given as “decomposes”. The mean half-life entry in data set [2] is “about 4.5 hours”.
